Test results reported in paper PMC9549831 (European Journal of Clinical Pharmacology, 2022).

Experiments:
[1] = set-up: method as in PMID 12076989; details: after co-administration of diltiazem with saxagliptin; cited from earlier work
[2] = independent of total drug concentrations; cited from earlier work
[3] = system: PDE5; details: relative to sildenafil; cited from earlier work
[4] = cited from earlier work
[5] = Safety and tolerability: adverse effects, blood pressure, pulse rate in healthy volunteers; assay type: in vivo, human; details: for incidence of reported headache: 18 volunteers
Protocol: (§1) Blood glucose levels were measured for all volunteers on the ninth and the thirteenth day before dosing and at 0.5, 0.75, 1, 1.5, 2, 2.5, 3, 12, and 24 h; the main outcome measures were maximum plasma glucose concentration (Gmax) and the area under the blood glucose concentration–time curve (AUCg0-t). Blood pressure (systolic and diastolic) and heart rate were measured before dosing and at 2, 4, 6, 8, and 10 h after drug administration.
Blood pressure, pulse rate, and body temperature together with blood glucose levels were reported all over the study. Moreover, possible side and/or adverse reactions or events to the study formulations were recorded to assure the safety and tolerability of different drug administrations.

[6] = system: isolated aorta rings; details: cited from earlier work
[7] = healthy subjects and patients with type 2 diabetes; cited from earlier work
[8] = Pharmacodynamic parameters: blood glucose levels (Gmax, AUCg0-t) in healthy volunteers; assay type: in vivo, human
Protocol: as §1

[9] = clinical; details: human, in vivo
Protocol: Mobile phase composition is 25 mM ammonium acetate: methanol 25:[…]. The flow rate was set at 0.7 ml/min. Injection volume was set at 2.5 ul. […] Before transferring the plasma sample to the MCX cartridge, acidification of the plasma sample with […] of (formic acid 2%) was performed. The sample was washed with 200 ul of 2% formic acid in water followed by 200 ul of methanol. […] Then 350 ul of water was added to the eluent and vortexed. After that, the diluted eluent was transferred to a vial insert, and 2.5 μl was injected into LC/MS/ MS system for analysis. […] The limit of quantification was defined considering the method sensitivity, the precision, and the accuracy. To evaluate precision and accuracy, specific quality control samples were included in the validation procedure. […] Blood samples were collected into tubes containing EDTA disodium as an anticoagulant slightly shaken and centrifuged at approximately 4000 r.p.m. for 10 min. After centrifugation, plasma samples were transferred directly into a 5 ml-plastic tube. These samples were immediately stored at the study site in a freezer at a nominal temperature - 80 °C until analysis. The label of the collecting tubes had the study's code number, subject number, study period, and the designated sample number. […] Pharmacokinetic parameters were determined and calculated. […] The pharmacokinetic analysis was performed using the SAS program. All results were expressed as mean ± SD. Paired T-Test was used to compare results, and the level of significance was considered at (P < 0.05).

[10] = set-up: method as in PMID 33459228; details: cited from earlier work
[11] = oral administration, fasting conditions

For N#C[C@@H]1C[C@@H]2C[C@@H]2N1C(=O)[C@@H](N)C12CC3CC(O)(CC(O)(C3)C1)C2 [5-hydroxy saxagliptin], the “decrease of geometric mean AUC0-inf” value [1] is listed as 34% and the “decrease of geometric mean Cmax” value [1] is listed as 43%.
For CCCc1nn(C)c2c(=O)[nH]c(-c3cc(S(=O)(=O)N4CCNCC4)ccc3OCC)nc12 [N-desmethyl metabolite], the “bound to plasma proteins” value [2] is listed as 96%, the “in vitro potency for PDE5 relative to the parent drug” value [3] is listed as “approximately 50%” and the “plasma concentrations relative to those found for sildenafil” value [4] is listed as “approximately 40%”. The “terminal half-life (t1/2)” value [4] was “approximately 4 h”.
In the case of N#C[C@@H]1C[C@@H]2C[C@@H]2N1C(=O)[C@@H](N)C12CC3CC(CC(O)(C3)C1)C2 [saxagliptin], the “blood pressure and pulse rate” value ([5]; after co-administration of saxagliptin and sildenafil vs alone (P > 0.001)) is reported as “comparable”, the “incidence of reported headache” value ([5]; co-administration of saxagliptin 5 mg and sildenafil 50 mg) is reported as 44.4% and the “incidence of reported headache” value ([5]; drug administered alone) is reported as 0%. The “rise of NO/ONOO- rate” value [6] was “about 40%”, the “stimulation of NO release” value [6] was “about 18%” and the mean half-life [7] was 2.2 to 3.8 h. For the same molecule, the “time to reach maximal plasma concentration” value [7] was under 2 h, the “maximum glucose concentration (Gmax)” value ([8]; saxagliptin 5 mg + sildenafil 50 mg co-administered) was 95.6 mg/dL and the “maximum glucose concentration (Gmax)” value ([8]; saxagliptin 5 mg multiple doses alone) was 93.7 mg/dL. The AUC(0-inf) ([9]; 5 mg) was 113 ng·h/mL, the AUC(0-t) ([9]; 5 mg) was 112 ng·h/mL and the Tmax ([9]; 5 mg) was 1.24 h. For the same molecule, the “overall systemic exposure to saxagliptin [AUCs]” value ([10]; co-administration of simvastatin 40 mg) was “not affected” and the “effect on CYP3A4 activity” value ([10]; concluded from simvastatin pharmacokinetics at steady state) was “neither induces nor inhibits CYP3A4 activity”.
In the case of CCCc1nn(C)c2c(=O)[nH]c(-c3cc(S(=O)(=O)N4CCN(C)CC4)ccc3OCC)nc12 [sildenafil], the “incidence of reported headache” value ([5]; drug administered alone) is given as 33.3%, the “absolute oral bioavailability, range” value [4] is given as 25–63% and the “mean absolute oral bioavailability” value [4] is given as 41%. For the same molecule, the “mean steady-state volume of distribution” value [4] was 105 L, the “terminal half-life (t1/2)” value [4] was 3 to 5 h and the total body clearance [4] was 41 L/h. The “median time to Cmax” value [4, 11] was 60 min, the “time to maximum observed plasma concentration (Cmax)” value [4, 11] was 30 to 120 min and the AUC(0-t) ([9]; 50 mg) was 977 ng·h/mL. It also gave a Cmax ([9]; 50 mg) of 302 ng/mL and a Tmax ([9]; 50 mg) of 0.977 h.
